# Assay results as given in patent US7226944B2, “Taxanes having a C7 carbonate substituent” (FSU Research Foundation, Inc., priority 2000, dated 2007).
# pIC50: −log10 of the molar value.
# Test system: HCT116
# Assay: In vitro cytotoxicity measured by the cell colony formation assay
# Assay type: cell-based
# Conditions: HCT116 cells; drug concentration producing 50% inhibition of colony formation; 72 h with drug at 37° C., colonies counted after 7 days; read-out: IN VITRO ID 50 (nm) HCT116
# Procedure: Four hundred cells (HCT116) were plated in 60 mm Petri dishes containing 2.7 mL of medium (modified McCoy's 5a medium containing 10% fetal bovine serum and 100 units/mL penicillin and 100 µg/mL streptomycin). The cells were incubated in a CO2 incubator at 37° C. for 5 h for attachment to the bottom of Petri dishes. The compounds identified in Example 2 were made up fresh in medium at ten times the final concentration, and then 0.3 mL of this stock solution was added to the 2.7 mL of medium in the dish. The cells were then incubated with drugs for 72 h at 37° C. At the end of incubation the drug-containing media were decanted, the dishes were rinsed with 4 mL of Hank's Balance Salt Solution (HBSS), 5 mL of fresh medium was added, and the dishes were returned to the incubator for colony formation. The cell colonies were counted using a colony counter after incubation for 7 days.
row,Compound,pIC50
1,COC(=O)O[C@H]1C[C@H]2OC[C@@]2(OC(C)=O)C2[C@H](OC(=O)c3ccccc3)[C@]3(O)C[C@H](OC(=O)[C@H](O)[C@@H](NC(=O)OCC(C)C)c4ccco4)C(C)=C([C@@H](O)C(=O)[C@@]21C)C3(C)C (some centres unmarked) [Compound 4656],> 9.00
2,CC(=O)O[C@H]1C[C@H]2OC[C@@]2(OC(C)=O)C2[C@H](OC(=O)c3ccccc3)[C@]3(O)C[C@H](OC(=O)[C@H](O)[C@@H](NC(=O)OC(C)(C)C)C4CC4)C(C)=C([C@@H](O)C(=O)[C@@]21C)C3(C)C (some centres unmarked) [Compound 4555],> 9.00
3,CCOC(=O)O[C@H]1C[C@H]2OC[C@@]2(OC(C)=O)C2[C@H](OC(=O)c3ccccc3)[C@]3(O)C[C@H](OC(=O)[C@H](O)[C@@H](NC(=O)OCC(C)C)c4ccoc4)C(C)=C([C@@H](O)C(=O)[C@@]21C)C3(C)C (some centres unmarked) [Compound 4624],> 8.00
4,COC(=O)O[C@H]1C[C@H]2OC[C@@]2(OC(C)=O)C2[C@H](OC(=O)c3ccccc3)[C@]3(O)C[C@H](OC(=O)[C@H](O)[C@@H](NC(=O)OC(C)(C)C)C4CC4)C(C)=C([C@@H](O)C(=O)[C@@]21C)C3(C)C (some centres unmarked) [Compound 4566],> 9.00
5,COC(=O)O[C@H]1C[C@H]2OC[C@@]2(OC(C)=O)C2[C@H](OC(=O)c3ccccc3)[C@]3(O)C[C@H](OC(=O)[C@H](O)[C@@H](NC(=O)c4ccccc4)c4cccs4)C(C)=C([C@@H](O)C(=O)[C@@]21C)C3(C)C (some centres unmarked) [Compound 4411],> 9.00
6,CCOC(=O)O[C@H]1C[C@H]2OC[C@@]2(OC(C)=O)C2[C@H](OC(=O)c3ccccc3)[C@]3(O)C[C@H](OC(=O)[C@H](O)[C@@H](NC(=O)OCC(C)C)c4ccsc4)C(C)=C([C@@H](O)C(=O)[C@@]21C)C3(C)C (some centres unmarked) [Compound 4979],> 8.00
7,COC(=O)O[C@H]1C[C@H]2OC[C@@]2(OC(C)=O)C2[C@H](OC(=O)c3ccccc3)[C@]3(O)C[C@H](OC(=O)[C@H](O)[C@@H](NC(=O)OCC(C)C)c4ccsc4)C(C)=C([C@@H](O)C(=O)[C@@]21C)C3(C)C (some centres unmarked) [Compound 4674],> 9.00
8,CCOC(=O)O[C@H]1C[C@H]2OC[C@@]2(OC(C)=O)C2[C@H](OC(=O)c3ccccc3)[C@]3(O)C[C@H](OC(=O)[C@H](O)[C@@H](NC(=O)OC(C)(C)C)C4CC4)C(C)=C([C@@H](O)C(=O)[C@@]21C)C3(C)C (some centres unmarked) [Compound 5165],> 9.00
9,C/C=C/C(=O)N[C@@H](c1cccs1)[C@@H](O)C(=O)O[C@H]1C[C@@]2(O)[C@@H](OC(=O)c3ccccc3)C3[C@](C)(C(=O)[C@H](O)C(=C1C)C2(C)C)[C@@H](OC(=O)OCc1ccccc1)C[C@H]1OC[C@@]31OC(C)=O (some centres unmarked) [Compound 6566],> 8.00
10,C/C=C/C(=O)N[C@@H](c1ccoc1)[C@@H](O)C(=O)O[C@H]1C[C@@]2(O)[C@@H](OC(=O)c3ccccc3)C3[C@](C)(C(=O)[C@H](O)C(=C1C)C2(C)C)[C@@H](OC(=O)OC)C[C@H]1OC[C@@]31OC(C)=O (some centres unmarked) [Compound 4877],> 9.00
11,COC(=O)O[C@H]1C[C@H]2OC[C@@]2(OC(C)=O)C2[C@H](OC(=O)c3ccccc3)[C@]3(O)C[C@H](OC(=O)[C@H](O)[C@@H](NC(=O)OCC(C)C)C4CC4)C(C)=C([C@@H](O)C(=O)[C@@]21C)C3(C)C (some centres unmarked) [Compound 5211],> 8.00
12,CCOC(=O)O[C@H]1C[C@H]2OC[C@@]2(OC(C)=O)C2[C@H](OC(=O)c3ccccc3)[C@]3(O)C[C@H](OC(=O)[C@H](O)[C@H](C=C(C)C)NC(=O)OCC(C)C)C(C)=C([C@@H](O)C(=O)[C@@]21C)C3(C)C (some centres unmarked) [Compound 4688],> 8.00
13,CC(=O)O[C@@]12CO[C@@H]1C[C@H](OC(=O)OCc1ccccc1)[C@@]1(C)C(=O)[C@H](O)C3=C(C)[C@@H](OC(=O)[C@H](O)[C@@H](NC(=O)OC(C)(C)C)c4ccco4)C[C@@](O)([C@@H](OC(=O)c4ccccc4)C12)C3(C)C (some centres unmarked) [Compound 5433],> 9.00
14,CCOC(=O)O[C@H]1C[C@H]2OC[C@@]2(OC(C)=O)C2[C@H](OC(=O)c3ccccc3)[C@]3(O)C[C@H](OC(=O)[C@H](O)[C@@H](NC(=O)C=C(C)C)c4cccs4)C(C)=C([C@@H](O)C(=O)[C@@]21C)C3(C)C (some centres unmarked) [Compound 4164],> 9.00
15,CCOC(=O)O[C@H]1C[C@H]2OC[C@@]2(OC(C)=O)C2[C@H](OC(=O)c3ccccc3)[C@]3(O)C[C@H](OC(=O)[C@H](O)[C@@H](NC(=O)OCC(C)C)C4CC4)C(C)=C([C@@H](O)C(=O)[C@@]21C)C3(C)C (some centres unmarked) [Compound 5225],> 8.00
16,CCOC(=O)O[C@H]1C[C@H]2OC[C@@]2(OC(C)=O)C2[C@H](OC(=O)c3ccccc3)[C@]3(O)C[C@H](OC(=O)[C@H](O)[C@@H](NC(=O)c4ccco4)c4cccs4)C(C)=C([C@@H](O)C(=O)[C@@]21C)C3(C)C (some centres unmarked) [Compound 4304],> 8.00
17,COC(=O)O[C@H]1C[C@H]2OC[C@@]2(OC(C)=O)C2[C@H](OC(=O)c3ccccc3)[C@]3(O)C[C@H](OC(=O)[C@H](O)[C@@H](NC(=O)c4cccs4)c4cccs4)C(C)=C([C@@H](O)C(=O)[C@@]21C)C3(C)C (some centres unmarked) [Compound 4424],> 9.00
18,CCOC(=O)O[C@H]1C[C@H]2OC[C@@]2(OC(C)=O)C2[C@H](OC(=O)c3ccccc3)[C@]3(O)C[C@H](OC(=O)[C@H](O)[C@@H](NC(=O)C=C(C)C)c4ccco4)C(C)=C([C@@H](O)C(=O)[C@@]21C)C3(C)C (some centres unmarked) [Compound 6151],> 9.00
19,C/C=C/C(=O)N[C@@H](c1cccs1)[C@@H](O)C(=O)O[C@H]1C[C@@]2(O)[C@@H](OC(=O)c3ccccc3)C3[C@](C)(C(=O)[C@H](O)C(=C1C)C2(C)C)[C@@H](OC(=O)OCC)C[C@H]1OC[C@@]31OC(C)=O (some centres unmarked) [Compound 4855],> 9.00
20,COC(=O)O[C@H]1C[C@H]2OC[C@@]2(OC(C)=O)C2[C@H](OC(=O)c3ccccc3)[C@]3(O)C[C@H](OC(=O)[C@H](O)[C@@H](NC(=O)C=C(C)C)c4cccs4)C(C)=C([C@@H](O)C(=O)[C@@]21C)C3(C)C (some centres unmarked) [Compound 4244],> 9.00
21,COC(=O)O[C@H]1C[C@H]2OC[C@@]2(OC(C)=O)C2[C@H](OC(=O)c3ccccc3)[C@]3(O)C[C@H](OC(=O)[C@H](O)[C@@H](NC(=O)OCC(C)C)c4cccs4)C(C)=C([C@@H](O)C(=O)[C@@]21C)C3(C)C (some centres unmarked) [Compound 4355],> 9.00
22,CCOC(=O)O[C@H]1C[C@H]2OC[C@@]2(OC(C)=O)C2[C@H](OC(=O)c3ccccc3)[C@]3(O)C[C@H](OC(=O)[C@H](O)[C@@H](NC(=O)OCC(C)C)c4ccco4)C(C)=C([C@@H](O)C(=O)[C@@]21C)C3(C)C (some centres unmarked) [Compound 4696],> 9.00
23,C/C=C/C(=O)N[C@@H](c1ccsc1)[C@@H](O)C(=O)O[C@H]1C[C@@]2(O)[C@@H](OC(=O)c3ccccc3)C3[C@](C)(C(=O)[C@H](O)C(=C1C)C2(C)C)[C@@H](OC(=O)OCC)C[C@H]1OC[C@@]31OC(C)=O (some centres unmarked) [Compound 4999],> 9.00
24,C/C=C/C(=O)N[C@@H](c1ccsc1)[C@@H](O)C(=O)O[C@H]1C[C@@]2(O)[C@@H](OC(=O)c3ccccc3)C3[C@](C)(C(=O)[C@H](O)C(=C1C)C2(C)C)[C@@H](OC(=O)OC)C[C@H]1OC[C@@]31OC(C)=O (some centres unmarked) [Compound 4969],> 9.00
25,COC(=O)O[C@H]1C[C@H]2OC[C@@]2(OC(C)=O)C2[C@H](OC(=O)c3ccccc3)[C@]3(O)C[C@H](OC(=O)[C@H](O)[C@@H](NC(=O)c4ccco4)c4cccs4)C(C)=C([C@@H](O)C(=O)[C@@]21C)C3(C)C (some centres unmarked) [Compound 4222],> 9.00
26,C/C=C/C(=O)N[C@@H](c1ccoc1)[C@@H](O)C(=O)O[C@H]1C[C@@]2(O)[C@@H](OC(=O)c3ccccc3)C3[C@](C)(C(=O)[C@H](O)C(=C1C)C2(C)C)[C@@H](OC(=O)OCC)C[C@H]1OC[C@@]31OC(C)=O (some centres unmarked) [Compound 4904],> 8.00
